Measured values from patent US8101375B2, “Compositions and methods for detecting phosphomonoester” (Illumina, Inc., priority 2005, dated 2012).

Experiments:
[1] = target: p60c-src kinase (Homo sapiens, UniProt P12931); assay: Multiplex kinase profiling assay, 194-target pool, chemical labeling, p60c-src kinase; format: biochemical; conditions: chemical labeling with low pH EDC pre-treatment
Description: (§1) A kinase profiling assay was carried out in four major steps, including the phosphorylation of protein target in a kinase enzyme reaction, labeling of phosphorylated target, hybridization of labeled target to the array, and detection of hybridized target on the array.
(§2) In the first step, phosphorylation was carried out in duplex format such that a mixture of two DNA-protein conjugate targets, one having an amino acid recognition sequence for p60c-src kinase and the other for PKA kinase, were co-incubated with p60c-src kinase and PKA kinase. The reaction was performed in 15 ul of 50 mM HEPES, containing 0.1 mM EDTA, 0.015% Brig 35, 0.15 mM ATP, 30 mM MgCl2, 0.1% 2-mercaptoethanol, pH 7.5.
(§3) Upon completion of the enzymatic reaction; the second step was carried out to detect phosphorylation using chemical labeling or antibody-based labeling. In the chemical labeling method, a solution of 5-(aminoacetamido)fluorescein (NH2-FAM, Molecular Probes, Oreg.) and EDC in MES buffer, pH 6.0, was added to the reaction mixture to a final concentration of 150 mM EDC and 200 μM of NH2-FAM. Where pre-treatment was used to block (i.e. protect) […] moieties, the pH of the reaction mixture was first adjusted to pH 4.5 and then pre-treated with 100 mM of EDC for 1.5 hours at 25° C. After the pre-treatment, the NH2-FAM and EDC were added and the reaction was allowed to proceed overnight. […]

[2] = target: PKA kinase (Homo sapiens, UniProt P17612); assay: Multiplex kinase profiling assay, 194-target pool, chemical labeling, PKA kinase; format: biochemical; conditions: selectivity check
Description: as §1, §2, §3

p60c-src kinase, sequence (P12931 whole entry): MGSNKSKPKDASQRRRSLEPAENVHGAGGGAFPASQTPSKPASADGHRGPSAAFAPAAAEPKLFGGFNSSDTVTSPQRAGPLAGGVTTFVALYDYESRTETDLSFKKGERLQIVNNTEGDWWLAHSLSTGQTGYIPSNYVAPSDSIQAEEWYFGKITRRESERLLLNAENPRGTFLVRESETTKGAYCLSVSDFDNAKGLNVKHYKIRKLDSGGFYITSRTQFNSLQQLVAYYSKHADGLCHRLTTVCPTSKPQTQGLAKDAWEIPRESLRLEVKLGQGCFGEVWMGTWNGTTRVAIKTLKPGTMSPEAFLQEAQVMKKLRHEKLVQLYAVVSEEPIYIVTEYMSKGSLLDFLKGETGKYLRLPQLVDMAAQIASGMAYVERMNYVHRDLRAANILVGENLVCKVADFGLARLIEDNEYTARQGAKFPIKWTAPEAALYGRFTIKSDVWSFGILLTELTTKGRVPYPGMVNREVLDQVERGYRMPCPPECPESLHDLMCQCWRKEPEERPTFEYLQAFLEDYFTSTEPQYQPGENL

`COc1cc2ncnc(Nc3ccc(Oc4ccccc4)cc3)c2cc1OC` [Src Kinase Inhibitor I] was tested, and the “inhibition of p60c-src kinase” value [1] was 85% and the “effect on PKA kinase” value [2] was “no detectable effect”.
